# Reference: patent publication US11523612B2, “Pesticidal composition comprising oxime carbamate and use thereof” (priority 2017, dated 2022)
# How the values were obtained:
# [1] = Solubility Test 1: oxamyl dissolved in solvent systems, crystallization or precipitation observed; format: physicochemical
# Procedure: Samples of each solution were kept at −6° C. and −18° C. for 7 days, after which the degree of crystallization or precipitation of oxamyl was observed.
# [2] = as above; format: physicochemical; remark: listed apart in the source
# [3] = 40 g oxamyl in Methanol:Water 50:50 g
# [4] = 40 g oxamyl in Methanol:Water 80:20 g
# [5] = 40 g oxamyl in Methanol:Water:Propylene Carbonate 30:20:50 g
# [6] = 40 g oxamyl in Methanol:Water:Propylene Carbonate 40:30:30 g
# [7] = 40 g oxamyl in Methanol:Water:Propylene Carbonate 40:40:20 g
# [8] = 40 g oxamyl in Methanol:Water:Propylene Carbonate 50:40:10 g
# [9] = 40 g oxamyl in Methanol:Water:Propylene Carbonate 60:20:20 g
# [10] = 40 g oxamyl in Methanol:Water:Propylene Carbonate 75:20:5 g
smiles,measurement,setting,value
"CNC(=O)O/N=C(\SC)C(=O)N(C)C [Oxamyl, methyl 2-(dimethylamino)-N-[[(methylamino)carbonyl]oxy]-2-oxoethanimidothioate]",Observations after 7 days at −6° C.,[1]; [3],Mild precipitation
same,Observations after 7 days at −18° C.,[1]; [3],Significant precipitation
same,Observations at room temperature,[1]; [3],Clear solution
same,Observations after 7 days at −6° C.,[1]; [4],Clear solution
same,Observations after 7 days at −18° C.,[1]; [4],Significant precipitation
same,Observations after 7 days at −6° C.,[1]; [5],Clear solution
same,Observations after 7 days at −18° C.,[1]; [5],Clear solution
same,Observations after 7 days at −6° C.,[1]; [6],Clear solution
same,Observations after 7 days at −18° C.,[1]; [6],Clear solution
same,Observations at room temperature,[1]; [6],Clear solution
same,Observations after 7 days at −6° C.,[1]; [7],Clear solution
same,Observations after 7 days at −18° C.,[1]; [7],Clear solution
same,Observations at room temperature,[1]; [7],Clear solution
same,Observations after 7 days at −6° C.,[1]; [8],Clear solution
same,Observations after 7 days at −18° C.,[1]; [8],Clear solution
same,Observations at room temperature,[1]; [8],Clear solution
same,Observations after 7 days at −6° C.,[1]; [9],Clear solution
same,Observations after 7 days at −18° C.,[1]; [9],Clear solution
same,Observations at room temperature,[1]; [9],Clear solution
same,Observations after 7 days at −6° C.,[1]; [10],Clear solution
same,Observations after 7 days at −18° C.,[1]; [10],Clear solution
same,solubility for oxamyl,"[1]; solvent system comprising methanol, water and propylene carbonate, temperatures down to −18° C.",significantly higher solubility
same,Observations at room temperature,[2]; [4],Clear solution
same,Observations at room temperature,[2]; [5],Clear solution
same,Observations at room temperature,[2]; [10],Clear solution
